Here are results for 14 molecules from US20010011075A1, “5'-SUBSTITUTED-RIBOFURANOSYL BENZIMIDAZOLES AS ANTIVIRAL AGENTS” (priority 1999, published 2001).

The nature of series [1]: Visual cytotoxicity in stationary HFF cells at time of plaque enumeration. It counts as cell-based, human. Conditions: human, stationary human foreskin fibroblasts (HFF cells); visual cytotoxicity on HFF cells at time of HCMV plaque enumeration; read-out: 50% Inhibitory Concentration, Cytotoxicity (HFF). How it is done: (§1) KB cells (available from the American Type Culture Collection (ATCC) 12301 Parklawn Drive, […], Md. 20852 (ATCC CCL 17)), an established human cell line derived from an epidermal oral carcinoma, were grown in minimal essential medium (MEM) (Sigma) with Hanks salts (MEM(H)) supplemented with 5% fetal calf serum. Human foreskin fibroblasts (HFF cells) (provided by the University of Michigan Hospital) and African green monkey kidney cells (BSC-1) (ATTC CCL 26) cells were grown in MEM with Earl salts (MEM(E)) supplemented with 10% fetal bovine serum. Cells were passaged according to conventional procedures and as described in Shipman, C., Jr. et al. (1976) Antimicrob. Agents Chemother. Vol. 9:120 and incorporated herein by reference. Briefly, cells were passaged at 1:2 to 1:10 dilutions according to conventional procedures by using 0.05% trypsin plus 0.02% EDTA in a HEPES buffered salt solution. HFF cells were passaged only at 1:2 dilutions.
(§2) Two different methods were used to evaluate cytotoxicity of the compounds. First, cytotoxicity produced in stationary HFF cells was determined by microscopical examination of cells not affected by the virus used in the plaque assay. Second the effect of compounds on KB cells during two population doubling times was determined by crystal violet staining and spectrophotometric quantitation of dye eluted from stained cells. This method has been utilized for the analysis of ganciclovir and zidovudine (See Prichard, M. N. et al. Antiviral Res. (1991) Vol. 35:1060-1065).
(§3) (3) Visual cytotoxicity was scored on HFF cells at the time of HCMV plaque enumeration. Inhibition of KB cell growth was determined as described in the experimental. 3L was used as a positive control for the KB cytotoxicity assay.

Series [2] is described as follows: Inhibition of KB cell growth (crystal violet staining). Conditions: human, KB cells (human epidermal oral carcinoma line); inhibition of KB cell growth; read-out: 50% Inhibitory Concentration, Cytotoxicity (KB). The series is classed as cell-based, human. The procedure:
as §1, §2, §3

A further series deals with HSV-1. The experiment in a line: HSV-1 ELISA assay. The series is classed as cell-based, HSV-1 (KOS strain). Particulars: read-out: 50% Inhibitory Concentration, Antiviral Activity (ELISA). How it is done:
(§4) A plaque purified isolate, Po, of the Towne strain of HCMV was used in all experiments and was a gift of Dr. Mark Stinski, University of Iowa. The KOS strain of HSV-1 was used and was provided by Dr. Sandra K. Weller, University of Connecticut. Stock preparations of HCMV and HSV-1 were prepared and titered as known to those of skill and the art and described in Turk, S. R. et al. (1987) Antimicrob. Agents Chemother. Vol. 31:544-550 and Shipman, C., Jr., et al. (1990) J. Virol. Methods Vol. 28:101-106, each incorporated herein by reference.
(§5) HCMV plaque reduction experiments were performed with monolayer cultures of HFF cells by a procedure similar to that referenced above for titration of the viruses and described in Devivar, R. V. et al. (1994) J. Med. Chem. Vol. 37:2942-2949. Activity of compounds against HSV-1 was evaluated using an ELISA assay.
ELISA techniques according to standard procedures were also used to determine activity against HSV-1. Drug effects were calculated as a percentage of the reduction in virus titers in the presence of each drug concentration compared to the titer obtained in the absence of drug. Ganciclovir was used as a positive control in all experiments.
(§6) Dose-response relationships can be used to compare drug effects. These are constructed by linearly regressing the percent inhibition of parameters derived in the preceding sections against log drug concentrations. The 50 inhibitory (I50) concentrations were calculated from the regression lines using the methods described by Goldstein. See Goldstein, A., Biostatistics: An Introductory Text, MacMillan, New York, pp. 156-161 (1964), incorporated herein by reference.
(§7) (2) A plaque assay was used to quantitate anti HCMV activity, an ELISA assay was used to quantitate activity against HSV-1. DHPG (ganciclovir) was used as a positive control for the HCMV assay.
(ELISA stands for enzyme-linked immunosorbent assay.)

In the next series the test system is HCMV. Briefly: HCMV plaque (focus) reduction assay in HFF cells. The series is classed as cell-based, HCMV (Towne strain). Conditions: HCMV plaque assay, HFF cells, averages from two or more experiments, read-out: 50% Inhibitory Concentration, Antiviral Activity (plaque). The procedure:
as §4, §5
The effect of compounds of the replication of HCMV was measured using a plaque (focus) reduction assay. For the former, HFF cells in 24-well culture dishes were infected with approximately 50 p.f.u. of HCMV per well using the procedures detailed above. Compounds dissolved in growth medium were added in four to six selected concentrations to duplicate wells following virus adsorption. Following incubation at 37° C. for 7 to 10 days, cell sheets were fixed, stained and microscopic plaques were enumerated as described above. Drug effects were calculated as a percentage of reduction in number of plaques in the presence of each drug concentration compared to the number observed in the absence of drug. DHPG (ganciclovir) was used as a positive control in all experiments.
as §6, §7

For the next series, the system named is HFF cells. The experiment in a line: Visual cytotoxicity in stationary HFF cells at time of plaque enumeration. It counts as cell-based, human. Particulars: visual cytotoxicity on HFF cells at time of HCMV plaque enumeration; read-out: 50% Inhibitory Concentration, Cytotoxicity (HFF). The procedure:
as §1, §2, §3

The test system of a further series is KB cells. The experiment in a line: Inhibition of KB cell growth (crystal violet staining). It counts as cell-based, human. Conditions: for IC50: inhibition of KB cell growth, read-out: 50% Inhibitory Concentration, Cytotoxicity (KB). The procedure:
as §1, §2, §3

In a further series the test system is L1210 cells. The experiment in a line: Antiproliferative activity: growth of L1210 cells. It counts as cell-based, mouse. How it is done:
Antiproliferative activity was evaluated by measuring the effect of the compounds on the growth of L1210 cells, a mouse leukemia cell line which is generally available and can be obtained from Cancer Chemotherapy Center, Japanese Foundation for Cancer Research. Antiproliferative activity was measured using conventional procedures and as described in Wotring, L. L. and Townsend, L. B., (1979) Cancer Res. Vol. 39:3018-3023 and Cory, A. H. et al. (1991) Cancer Comm. Vol. 3:207-212, each incorporated herein by reference.
(8) The concentration required to decrease the final growth rate of L1210 cells to half of the control rate. All values are averages from two or more experiments.

[3] abbreviates: Human alphaherpesvirus 1, averages from two or more experiments.
Where [4] appears, read: averages from two or more experiments.

Each structure is given as a SMILES string. Where two headings read alike, the source gives them in different places.

Turning to `OC[C@H]1O[C@@H](n2c(Cl)nc3cc(Cl)c(Cl)cc32)[C@H](O)[C@@H]1O` [Compound 1, 2,5,6-trichloro-1-(β-D-ribofuranosyl)benzimidazole, reference compound], the IC50 was 238 µM in series [1]; over 100 µM with HSV-1 (setting [3]); 2760 nM in the series with HCMV (Human betaherpesvirus 5, HFF). Further, the IC50 at 2 population doubling times in series [2] came to 210 µM.
Turning to `CC(=O)O[C@@H]1[C@H](OC(C)=O)[C@@H](CF)O[C@H]1n1c(Cl)nc2cc(Cl)c(Cl)cc21` [Compound 12a, 2,5,6-trichloro-1-(2′,3′-di-O-acetyl-5′-deoxy-5′-fluoro-β-D-ribofuranosyl)benzimidazole], the IC50 in the series on HFF cells was 32 µM; in the series with KB cells, 100 µM; in the series on HSV-1 (setting [4]) it was over 100 µM; in the series on HCMV it was 600 nM. Moreover, the “cytotoxicity in growing KB cells (in words)” value with KB cells was “little or no cytoxicity”.
For `CC(=O)O[C@@H]1[C@H](OC(C)=O)[C@@H](CCl)O[C@H]1n1c(Cl)nc2cc(Cl)c(Cl)cc21` [Compound 12b, 2,5,6-trichloro-1-(2′,3′-di-O-acetyl-5′-deoxy-5′-chloro-β-D-ribofuranosyl)benzimidazole], the IC50 in the series on HFF cells is 32 µM; with KB cells, 90 µM; with HSV-1 (setting [4]) it was over 100 µM; in the series on HCMV, 1400 nM.
For `CC(=O)O[C@@H]1[C@H](OC(C)=O)[C@@H](CBr)O[C@H]1n1c(Cl)nc2cc(Cl)c(Cl)cc21` [Compound 12c, 2,5,6-trichloro-1-(2′,3′-di-O-acetyl-5′-deoxy-5′-bromo-β-D-ribofuranosyl)benzimidazole], the IC50 in the series with HFF cells is 32 µM; with KB cells, 60 µM; with HSV-1 (setting [4]), over 100 µM; with HCMV it was 2700 nM.
In the case of `CC(=O)O[C@@H]1[C@H](OC(C)=O)[C@@H](CI)O[C@H]1n1c(Cl)nc2cc(Cl)c(Cl)cc21` [Compound 12d, 2,5,6-trichloro-1-(2′,3′-di-O-acetyl-5′-deoxy-5′-iodo-β-D-ribofuranosyl)benzimidazole], the IC50 in the series with HFF cells was 32 µM; in the series with KB cells, 60 µM; in the series with HSV-1 (setting [4]), over 100 µM; in the series with HCMV, 2500 nM.
Turning to `O[C@@H]1[C@H](O)[C@@H](CF)O[C@H]1n1c(Cl)nc2cc(Cl)c(Cl)cc21` [Compound 13a, 2,5,6-trichloro-1-(5′-deoxy-5′-fluoro-β-D-ribofuranosyl)benzimidazole], the IC50 in the series on HFF cells was 32 µM; in the series with KB cells, over 100 µM; in the series on L1210 cells (concentration required to decrease final growth rate of L1210 cells to half of control rate, read-out: 50% Inhibitory Concentration, Antiproliferative Activity), over 100 µM; with HSV-1 (setting [4]) it was over 100 µM; with HCMV, 500 nM. Besides, the “cytotoxicity in growing KB cells (in words)” value in the series with KB cells is on record as “little or no cytoxicity”. The “antiproliferative effect in L1210 cells (in words)” value in the series with L1210 cells (statement in text on Table 2) is on record as “no antiproliferative effect”.
For the molecule `O[C@@H]1[C@H](O)[C@@H](CBr)O[C@H]1n1c(Cl)nc2cc(Cl)c(Cl)cc21` [Compound 13c, 2,5,6-trichloro-1-(5′-deoxy-5′-bromo-β-D-ribofuranosyl)benzimidazole], the IC50 in the series on HFF cells was 32 µM; with KB cells, 90 µM; in the series on HSV-1 (setting [4]) it was over 100 µM; in the series with HCMV, 1500 nM.
With `O[C@@H]1[C@H](O)[C@@H](CI)O[C@H]1n1c(Cl)nc2cc(Cl)c(Cl)cc21` [Compound 13d, 2,5,6-trichloro-1-(5′-deoxy-5′-iodo-β-D-ribofuranosyl)benzimidazole], the values for the IC50 in the series with HFF cells and with HCMV were 32 µM and 3200 nM, respectively.
Consider `CC(=O)O[C@@H]1[C@H](OC(C)=O)[C@@H](CN=[N+]=[N-])O[C@H]1n1c(Cl)nc2cc(Cl)c(Cl)cc21` [Compound 16a, 2,5,6-trichloro-1-(2′,3′-di-O-acetyl-5′-deoxy-5′-azido-β-D-ribofuranosyl)benzimidazole], for which the IC50 is 32 µM with HFF cells, 70 µM in the series on KB cells, over 100 µM in the series on HSV-1 (setting [4]) and 1500 nM in the series on HCMV.
`CSC[C@H]1O[C@@H](n2c(Cl)nc3cc(Cl)c(Cl)cc32)[C@H](OC(C)=O)[C@@H]1OC(C)=O` [Compound 16b, 2,5,6-trichloro-1-(2′,3′-di-O-acetyl-5′-deoxy-5′-methylthio-β-D-ribofuranosyl) benzimidazole]: the IC50 in the series with HFF cells is 32 µM; in the series on KB cells it was over 100 µM; with HSV-1 (setting [4]), over 100 µM; in the series with HCMV it was 4800 nM.
Turning to `CC1(C)O[C@@H]2[C@H](O1)[C@@H](CO)O[C@H]2n1c(Cl)nc2cc(Cl)c(Cl)cc21` [Compound 18, 2,5,6-Trichloro-1-(2′,3′-O-isopropylidene-β-D-ribofuranosyl)benzimidazole], the figures for the IC50 in the series with HFF cells and in the series with HCMV were over 100 µM and 12400 nM, respectively.
As to `CC1(C)OC2C(CN=[N+]=[N-])OC(n3c(Cl)nc4cc(Cl)c(Cl)cc43)C2O1` [Compound 19a, 2,5,6-Trichloro-1-(2′,3′-O-isopropylidene-5′-deoxy-5′-azido-β-D-ribofuranosyl) benzimidazole], the IC50 in the series on HFF cells stood at 32 µM; in the series with HCMV, 10900 nM.
For the molecule `CC1(C)O[C@@H]2[C@H](O1)[C@@H](CCl)O[C@H]2n1c(Cl)nc2cc(Cl)c(Cl)cc21` [Compound 19b, 2,5,6-Trichloro-1-(2′,3′-O-isopropylidene-5′-deoxy-5′-chloro-β-D-ribofuranosyl) benzimidazole], the IC50 with HFF cells was 66 µM; in the series with KB cells, 100 µM; with HSV-1 (setting [4]), over 100 µM; in the series on HCMV, 13500 nM.
In the case of `Nc1nc(O)c2ncn(COC(CO)CO)c2n1` [DHPG, ganciclovir, reference compound], the values for the IC50 (in series [1]; in the series with HSV-1 (setting [3])) were over 100 µM and 3.5 µM, respectively. The IC50 at 2 population doubling times in series [2] was over 100 µM.
